Source: PMC6639057 (Investigational new drugs, 2018)

Tested on: patients with advanced solid tumors
Experiment: Adverse events
[1] = escalation 35 mg + G-CSF (n = 3)
[2] = escalation 40 mg + G-CSF (n = 11)
[3] = escalation 50 mg + G-CSF (n = 4)
[4] = escalation 1, 2, 4, 8 mg (n = 4)
[5] = expansion 40 mg + G-CSF, CRPC (n = 12)
[6] = expansion 40 mg + G-CSF, OC (n = 29)
[7] = expansion 40 mg + G-CSF, TNBC (n = 14)

Cc1csc(-c2nnc(Nc3ccc(Oc4ncccc4-c4ccnc(N)n4)cc3)c3ccccc23)c1 [AMG 900]
4 (29) n (%): Grade ≥ 3 treatment-related AEs: Anemia [7] | Grade ≥ 3 treatment-related AEs: Neutropenia [7]
12 (100) n (%): All treatment-emergent AEs [5] | All treatment-related AEs [5]
25 (86) n (%): Grade ≥ 3 AEs [6]
2 (7) n (%): Grade ≥ 3 treatment-related AEs: Hemoglobin decreased [6] | Grade ≥ 3 treatment-related AEs: White blood cell count decreased [6]
2 (67) n (%): Grade ≥ 3 AEs [1] | Grade ≥ 3 treatment-related AEs [1]
22 (76) n (%): Grade ≥ 3 treatment-related AEs [6]
3 (27) n (%): Serious AEs [2]
4 (36) n (%): Grade ≥ 4 AEs [2]
10 (91) n (%): All treatment-related AEs [2]
14 (48) n (%): Serious AEs [6]
4 (100) n (%): All treatment-emergent AEs [3] | All treatment-related AEs [3] | All treatment-emergent AEs [4]
3 (10) n (%): Grade ≥ 3 treatment-related AEs: Leukopenia [6]
5 (36) n (%): AEs leading to discontinuation of AMG 900 [7] | Grade ≥ 4 AEs [7]
1 (25) n (%): Fatal AEs [3] | Grade ≥ 3 treatment-related AEs: Anemia [3] | Grade ≥ 3 treatment-related AEs: Febrile neutropenia [3] | Grade ≥ 3 treatment-related AEs: Leukopenia [3] | Grade ≥ 3 treatment-related AEs: Neutropenia [3] | Grade ≥ 3 treatment-related AEs: Thrombocytopenia [3] | Grade ≥ 3 AEs [4] | Grade ≥ 3 treatment-related AEs [4] | Grade ≥ 3 treatment-related AEs: Anemia [4]
2 (50) n (%): AEs leading to discontinuation of AMG 900 [3] | Grade ≥ 3 treatment-related AEs: Fatigue [3] | Grade ≥ 4 AEs [3] | Serious AEs [3]
5 (46) n (%): Grade ≥ 3 treatment-related AEs: Neutropenia [2]
3 (100) n (%): All treatment-related AEs [1]
5 (17) n (%): AEs leading to discontinuation of AMG 900 [6]
3 (75) n (%): Grade ≥ 3 AEs [3] | Grade ≥ 3 treatment-related AEs [3] | All treatment-related AEs [4]
12 (41) n (%): Grade ≥ 3 treatment-related AEs: Anemia [6] | Grade ≥ 4 AEs [6]
6 (50) n (%): Grade ≥ 3 treatment-related AEs [5]
11 (100) n (%): All treatment-emergent AEs [2]
8 (73) n (%): Grade ≥ 3 AEs [2]
28 (97) n (%): All treatment-related AEs [6]
0 n (%): Fatal AEs [1] | Grade ≥ 3 treatment-related AEs: Anemia [1] | Grade ≥ 3 treatment-related AEs: Diarrhea [1] | Grade ≥ 3 treatment-related AEs: Fatigue [1] | Grade ≥ 3 treatment-related AEs: Febrile neutropenia [1] | Grade ≥ 3 treatment-related AEs: Hemoglobin decreased [1] | Grade ≥ 3 treatment-related AEs: Lymphopenia [1] | Grade ≥ 3 treatment-related AEs: Nausea [1] | Grade ≥ 3 treatment-related AEs: Thrombocytopenia [1] | Grade ≥ 3 treatment-related AEs: White blood cell count decreased [1] | Fatal AEs [2] | Grade ≥ 3 treatment-related AEs: Anemia [2] | Grade ≥ 3 treatment-related AEs: Fatigue [2] | Grade ≥ 3 treatment-related AEs: Hemoglobin decreased [2] | Grade ≥ 3 treatment-related AEs: Nausea [2] | Grade ≥ 3 treatment-related AEs: Vomiting [2] | Grade ≥ 3 treatment-related AEs: White blood cell count decreased [2] | Grade ≥ 3 treatment-related AEs: Diarrhea [3] | Grade ≥ 3 treatment-related AEs: Hemoglobin decreased [3] | Grade ≥ 3 treatment-related AEs: Lymphopenia [3] | Grade ≥ 3 treatment-related AEs: Nausea [3] | Grade ≥ 3 treatment-related AEs: Vomiting [3] | Grade ≥ 3 treatment-related AEs: White blood cell count decreased [3] | AEs leading to discontinuation of AMG 900 [4] | Fatal AEs [4] | Grade ≥ 3 treatment-related AEs: Diarrhea [4] | Grade ≥ 3 treatment-related AEs: Fatigue [4] | Grade ≥ 3 treatment-related AEs: Febrile neutropenia [4] | Grade ≥ 3 treatment-related AEs: Hemoglobin decreased [4] | Grade ≥ 3 treatment-related AEs: Leukopenia [4] | Grade ≥ 3 treatment-related AEs: Lymphopenia [4] | Grade ≥ 3 treatment-related AEs: Nausea [4] | Grade ≥ 3 treatment-related AEs: Neutropenia [4] | Grade ≥ 3 treatment-related AEs: Thrombocytopenia [4] | Grade ≥ 3 treatment-related AEs: Vomiting [4] | Grade ≥ 3 treatment-related AEs: White blood cell count decreased [4] | Grade ≥ 4 AEs [4] | Serious AEs [4] | Fatal AEs [5] | Grade ≥ 3 treatment-related AEs: Diarrhea [5] | Grade ≥ 3 treatment-related AEs: Febrile neutropenia [5] | Grade ≥ 3 treatment-related AEs: Leukopenia [5] | Grade ≥ 3 treatment-related AEs: Vomiting [5] | Grade ≥ 3 treatment-related AEs: White blood cell count decreased [5] | Fatal AEs [6] | Grade ≥ 3 treatment-related AEs: Nausea [6] | Grade ≥ 3 treatment-related AEs: Fatigue [7] | Grade ≥ 3 treatment-related AEs: Hemoglobin decreased [7] | Grade ≥ 3 treatment-related AEs: Leukopenia [7] | Grade ≥ 3 treatment-related AEs: Lymphopenia [7] | Grade ≥ 3 treatment-related AEs: Vomiting [7] | Grade ≥ 3 treatment-related AEs: White blood cell count decreased [7]
1 (8) n (%): Grade ≥ 3 treatment-related AEs: Hemoglobin decreased [5] | Grade ≥ 3 treatment-related AEs: Lymphopenia [5] | Grade ≥ 3 treatment-related AEs: Thrombocytopenia [5]
14 (100) n (%): All treatment-emergent AEs [7]
6 (55) n (%): Grade ≥ 3 treatment-related AEs [2]
6 (21) n (%): Grade ≥ 3 treatment-related AEs: Febrile neutropenia [6] | Grade ≥ 3 treatment-related AEs: Thrombocytopenia [6]
2 (18) n (%): AEs leading to discontinuation of AMG 900 [2] | Grade ≥ 3 treatment-related AEs: Diarrhea [2] | Grade ≥ 3 treatment-related AEs: Febrile neutropenia [2]
13 (93) n (%): All treatment-related AEs [7]
3 (25) n (%): AEs leading to discontinuation of AMG 900 [5] | Grade ≥ 3 treatment-related AEs: Neutropenia [5]
29 (100) n (%): All treatment-emergent AEs [6]
1 (9) n (%): Grade ≥ 3 treatment-related AEs: Leukopenia [2] | Grade ≥ 3 treatment-related AEs: Lymphopenia [2] | Grade ≥ 3 treatment-related AEs: Thrombocytopenia [2]
1 (3) n (%): Grade ≥ 3 treatment-related AEs: Diarrhea [6] | Grade ≥ 3 treatment-related AEs: Fatigue [6] | Grade ≥ 3 treatment-related AEs: Lymphopenia [6] | Grade ≥ 3 treatment-related AEs: Vomiting [6]
7 (50) n (%): Serious AEs [7]
11 (79) n (%): Grade ≥ 3 AEs [7]
4 (33) n (%): Serious AEs [5]
6 (43) n (%): Grade ≥ 3 treatment-related AEs [7]
2 (17) n (%): Grade ≥ 3 treatment-related AEs: Anemia [5] | Grade ≥ 3 treatment-related AEs: Fatigue [5] | Grade ≥ 3 treatment-related AEs: Nausea [5] | Grade ≥ 4 AEs [5]
9 (75) n (%): Grade ≥ 3 AEs [5]
17 (59) n (%): Grade ≥ 3 treatment-related AEs: Neutropenia [6]
3 (21) n (%): Fatal AEs [7]
1 (33) n (%): Grade ≥ 3 treatment-related AEs: Leukopenia [1] | Grade ≥ 3 treatment-related AEs: Neutropenia [1] | Grade ≥ 3 treatment-related AEs: Vomiting [1] | Grade ≥ 4 AEs [1] | Serious AEs [1]
1 (7) n (%): Grade ≥ 3 treatment-related AEs: Diarrhea [7] | Grade ≥ 3 treatment-related AEs: Febrile neutropenia [7] | Grade ≥ 3 treatment-related AEs: Nausea [7] | Grade ≥ 3 treatment-related AEs: Thrombocytopenia [7]
